Measured values taken from ChEMBL document CHEMBL5344409, “Discovery of pan-IAP degraders via a CRBN recruiting mechanism” (2023).
The source made the active and inactive calls. The rule behind the calls is not given here.

Tests used:
[1] = biological target: T1, Protein cereblon-IAP (Homo sapiens) (UniProt P98170+Q13489+Q13490+Q96SW2); test: PROTAC activity at CRBN/IAP in human MCF7 cells assessed as inhibition of TNFalpha-induced NFkappaB activation by measuring decrease in IkBalpha phosphorylation at 0.1 uM pretreated for 2 hrs followed by stimulation with TNF-alpha for 3 mins by western blot analysis; format: cell-based; details: time 123.0 min
T1 sequence (P98170 whole entry, looked up): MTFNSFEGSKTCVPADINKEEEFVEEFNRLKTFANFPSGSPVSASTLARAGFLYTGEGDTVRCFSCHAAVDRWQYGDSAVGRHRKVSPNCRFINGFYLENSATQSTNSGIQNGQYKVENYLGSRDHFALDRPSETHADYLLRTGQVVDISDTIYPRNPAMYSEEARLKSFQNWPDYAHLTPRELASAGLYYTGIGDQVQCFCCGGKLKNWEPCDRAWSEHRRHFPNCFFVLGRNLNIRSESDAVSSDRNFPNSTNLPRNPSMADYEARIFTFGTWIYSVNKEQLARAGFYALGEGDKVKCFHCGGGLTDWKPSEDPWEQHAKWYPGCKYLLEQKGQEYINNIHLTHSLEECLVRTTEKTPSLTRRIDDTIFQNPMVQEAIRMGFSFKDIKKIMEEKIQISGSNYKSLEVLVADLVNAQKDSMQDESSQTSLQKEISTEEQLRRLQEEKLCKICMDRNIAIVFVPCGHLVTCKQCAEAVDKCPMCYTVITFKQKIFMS
T1 sequence (Q13489 whole entry, looked up): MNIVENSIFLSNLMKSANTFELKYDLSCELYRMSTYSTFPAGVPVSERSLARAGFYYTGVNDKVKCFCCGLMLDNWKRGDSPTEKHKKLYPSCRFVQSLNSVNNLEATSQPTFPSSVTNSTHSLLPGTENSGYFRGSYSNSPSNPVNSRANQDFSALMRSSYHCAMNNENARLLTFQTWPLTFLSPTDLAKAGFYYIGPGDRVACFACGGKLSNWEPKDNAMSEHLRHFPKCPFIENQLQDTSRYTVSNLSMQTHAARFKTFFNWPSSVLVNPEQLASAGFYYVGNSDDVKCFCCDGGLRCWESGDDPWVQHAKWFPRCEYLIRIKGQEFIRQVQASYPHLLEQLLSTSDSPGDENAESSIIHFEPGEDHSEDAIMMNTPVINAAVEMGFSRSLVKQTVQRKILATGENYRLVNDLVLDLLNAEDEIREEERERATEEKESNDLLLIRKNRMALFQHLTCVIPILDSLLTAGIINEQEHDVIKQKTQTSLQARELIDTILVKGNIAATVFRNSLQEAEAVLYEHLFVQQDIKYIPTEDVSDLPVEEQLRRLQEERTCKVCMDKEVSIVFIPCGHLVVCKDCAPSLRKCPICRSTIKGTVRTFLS
T1 sequence (Q13490 whole entry, looked up): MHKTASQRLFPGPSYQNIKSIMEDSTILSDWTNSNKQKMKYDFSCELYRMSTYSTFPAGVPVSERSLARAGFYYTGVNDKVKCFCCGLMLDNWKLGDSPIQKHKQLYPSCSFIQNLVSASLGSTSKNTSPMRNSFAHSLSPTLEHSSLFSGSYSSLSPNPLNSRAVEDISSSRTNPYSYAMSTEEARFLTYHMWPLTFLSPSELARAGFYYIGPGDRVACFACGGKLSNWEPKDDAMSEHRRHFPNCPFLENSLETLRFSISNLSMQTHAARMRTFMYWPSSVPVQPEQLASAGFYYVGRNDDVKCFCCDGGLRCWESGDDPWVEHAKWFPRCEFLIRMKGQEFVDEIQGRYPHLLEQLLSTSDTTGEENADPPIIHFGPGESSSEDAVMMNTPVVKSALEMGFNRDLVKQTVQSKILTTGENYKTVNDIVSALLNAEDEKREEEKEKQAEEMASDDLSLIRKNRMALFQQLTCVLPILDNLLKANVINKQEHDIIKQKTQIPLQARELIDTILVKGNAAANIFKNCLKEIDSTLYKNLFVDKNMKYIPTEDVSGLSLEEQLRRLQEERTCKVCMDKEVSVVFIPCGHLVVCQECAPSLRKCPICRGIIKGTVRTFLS
T1 sequence (Q96SW2 whole entry, looked up): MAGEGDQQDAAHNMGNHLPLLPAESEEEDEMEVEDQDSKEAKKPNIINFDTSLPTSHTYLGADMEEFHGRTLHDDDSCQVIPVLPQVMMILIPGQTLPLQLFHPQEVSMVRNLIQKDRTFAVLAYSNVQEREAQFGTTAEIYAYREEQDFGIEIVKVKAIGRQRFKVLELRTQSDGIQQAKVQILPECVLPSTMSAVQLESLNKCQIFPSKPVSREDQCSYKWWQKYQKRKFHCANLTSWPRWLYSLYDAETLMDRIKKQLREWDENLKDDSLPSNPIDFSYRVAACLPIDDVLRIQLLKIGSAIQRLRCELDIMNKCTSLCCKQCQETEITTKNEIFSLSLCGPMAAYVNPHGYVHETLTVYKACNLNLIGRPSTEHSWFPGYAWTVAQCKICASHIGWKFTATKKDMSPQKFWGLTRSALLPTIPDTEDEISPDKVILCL

[2] = biological target: Baculoviral IAP repeat-containing protein 2 (Homo sapiens) (UniProt Q13490); test: Induction of cIAP1 degradation in human MCF7 cells assessed as protein abundance at 1 uM measured after 4 hrs by TMT-labeling based LC-MS/MS analysis; format: cell-based
Sequence of Baculoviral IAP repeat-containing protein 2 (Homo sapiens) (Q13490 whole entry): as the sequence (Q13490 whole entry, looked up) above

[3] = biological target: T2, Protein cereblon/Baculoviral IAP repeat-containing protein 3 (Homo sapiens) (UniProt Q13489+Q96SW2); test: Binding affinity to CRBN/cIAP2 in human HEK293T cells assessed as ternary complex formation at 1 uM measured after 6 hrs by immunoprecipitation analysis; format: cell-based
T2 sequence (Q13489 whole entry, looked up): as the sequence (Q13489 whole entry, looked up) above
T2 sequence (Q96SW2 whole entry, looked up): as the sequence (Q96SW2 whole entry, looked up) above

MCF7 [4] = test: Inhibition of TNFalpha-induced cytokine secretion in human MCF7 cells assessed as decrease in IL-6 level at 0.1 uM measured after 4 hrs by ELISA; format: functional, cell-based
MCF7 [5] = test: Inhibition of TNFalpha-induced vimentin protein expression in human MCF7 cells by western blot analysis; format: functional, cell-based
[6] = biological target: T1, Protein cereblon-IAP (Homo sapiens); test: PROTAC activity at CRBN/IAP in human MCF7 cells assessed as inhibition of TNFalpha-induced NFkappaB activation by measuring decrease in IKKalpha/beta phosphorylation at 0.1 uM pretreated for 2 hrs followed by stimulation with TNF-alpha for 3 mins by western blot analysis; format: cell-based; details: time 123.0 min
[7] = biological target: T3, Protein cereblon/E3 ubiquitin-protein ligase XIAP (Homo sapiens) (UniProt P98170+Q96SW2); test: PROTAC activity at CRBN/XIAP in human MCF7 cells assessed as induction of XIAP degradation at 0.1 to 10 uM measured after 18 hrs by western blot analysis; format: cell-based; details: dose 0.1-10 µM
T3 sequence (P98170 whole entry, looked up): as the sequence (P98170 whole entry, looked up) above
T3 sequence (Q96SW2 whole entry, looked up): as the sequence (Q96SW2 whole entry, looked up) above

[8] = biological target: T2, Protein cereblon/Baculoviral IAP repeat-containing protein 3 (Homo sapiens); test: PROTAC activity at CRBN/cIAP2 in human MCF7 cells assessed as induction of cIAP2 degradation at 0.1 uM measured after 18 hrs by western blot analysis; format: cell-based
[9] = biological target: T1, Protein cereblon-IAP (Homo sapiens); test: PROTAC activity at CRBN/IAP in human MCF7 cells assessed as inhibition of TNFalpha-induced NFkappaB activation by measuring decrease in p65 phosphorylation at 0.1 uM pretreated for 2 hrs followed by stimulation with TNF-alpha for 3 mins by western blot analysis; format: cell-based; details: time 123.0 min
MDA-MB-231 = test: Inhibition of TNFalpha-induced cell invasion in human MDA-MB-231 cells at 0.1 uM measured after 24 hrs in presence of TNFalpha by transwell assay; format: functional, cell-based
MCF7 [10] = test: Inhibition of TNFalpha-induced E-cadherin protein expression in human MCF7 cells by western blot analysis; format: functional, cell-based
[11] = biological target: T3, Protein cereblon/E3 ubiquitin-protein ligase XIAP (Homo sapiens); test: Binding affinity to CRBN/XIAP in human HEK293T cells assessed as ternary complex formation at 1 uM measured after 6 hrs by immunoprecipitation analysis; format: cell-based
[12] = biological target: T3, Protein cereblon/E3 ubiquitin-protein ligase XIAP (Homo sapiens); test: PROTAC activity at CRBN/XIAP in human MCF7 cells assessed as induction of XIAP degradation at 0.1 uM measured after 18 hrs by western blot analysis; format: cell-based
MCF7 [13] = test: Cytotoxicity against human MCF7 cells assessed as inhibition of cell growth measured after 72 hrs by CellTiter-Glo luminescent assay; format: functional
MCF7 [14] = test: Cytotoxicity against human MCF7 cells assessed as reduction in cell viability at 1 uM measured after 24 hrs in presence of TNF-alpha by CellTiter-Glo luminescent assay; format: functional, cell-based
[15] = biological target: Baculoviral IAP repeat-containing protein 2 (Homo sapiens) (UniProt Q13490); test: Induction of cIAP1 degradation in human MCF7 cells at 1 uM measured after 18 hrs by western blot analysis; format: cell-based
MCF7 [16] = test: Inhibition of TNFalpha-induced cytokine secretion in human MCF7 cells assessed as decrease in TNFalpha level at 0.1 uM measured after 4 hrs by ELISA; format: functional, cell-based
[17] = biological target: Baculoviral IAP repeat-containing protein 2 (Homo sapiens) (UniProt Q13490); test: Induction of cIAP1 degradation in human MCF7 cells transfected with CRBN siRNA at 0.01 to 1 uM measured after 18 hrs by western blot analysis; format: cell-based; details: dose 0.01-1 µM
[18] = biological target: T2, Protein cereblon/Baculoviral IAP repeat-containing protein 3 (Homo sapiens); test: PROTAC activity at CRBN/cIAP2 in human MCF7 cells assessed as induction of cIAP2 degradation at 1 uM measured after 18 hrs by western blot analysis; format: cell-based
SK-OV-3 = test: Cytotoxicity against human SK-OV-3 cells assessed as inhibition of cell growth measured after 72 hrs by CellTiter-Glo luminescent assay; format: functional, cell-based
MDA-MB-157 [19] = test: Inhibition of TNFalpha-induced cell migration in human MDA-MB-157 cells at 0.1 uM measured after 24 hrs in presence of TNFalpha by transwell assay; format: functional, cell-based
[20] = biological target: T3, Protein cereblon/E3 ubiquitin-protein ligase XIAP (Homo sapiens); test: PROTAC activity at CRBN/XIAP in human MCF7 cells assessed as induction of XIAP degradation at 1 uM measured after 6 hrs in presence of proteasome inhibitor, MG132 by western blot analysis; format: cell-based
MCF7 [21] = test: Induction of apoptosis in human MCF7 cells assessed as increase in caspase 3/7 activity at 0.01 to 1 uM measured after 18 hrs by Caspase-Glo reagent based luminescence analysis; format: functional, cell-based; details: dose 0.01-1 µM
MCF7 [22] = test: Induction of apoptosis in human MCF7 cells assessed as increase in caspase-7 cleavage at 1 uM measured after 6 hrs in presence of TNF-alpha by western blot analysis; format: functional, cell-based
MCF7 [23] = test: Induction of apoptosis in human MCF7 cells assessed as increase in caspase 7 cleavage at 0.1 uM measured after 18 hrs by western blot analysis; format: functional, cell-based
MDA-MB-157 [24] = test: Inhibition of TNFalpha-induced cell invasion in human MDA-MB-157 cells at 0.1 uM measured after 24 hrs in presence of TNFalpha by transwell assay; format: functional, cell-based
[25] = biological target: Protein cereblon/Baculoviral IAP repeat-containing protein 2 (Homo sapiens) (UniProt Q13490+Q96SW2); test: Binding affinity to CRBN/cIAP1 in human HEK293T cells assessed as ternary complex formation at 1 uM measured after 6 hrs by immunoprecipitation analysis; format: cell-based
Sequence of Protein cereblon/Baculoviral IAP repeat-containing protein 2 (Homo sapiens) (Q13490 whole entry, looked up): as the sequence (Q13490 whole entry, looked up) above
Sequence of Protein cereblon/Baculoviral IAP repeat-containing protein 2 (Homo sapiens) (Q96SW2 whole entry, looked up): as the sequence (Q96SW2 whole entry, looked up) above

[26] = biological target: T3, Protein cereblon/E3 ubiquitin-protein ligase XIAP (Homo sapiens); test: PROTAC activity at CRBN/XIAP in human MCF7 cells assessed as induction of XIAP degradation at 1 uM measured after 18 hrs by western blot analysis; format: cell-based
[27] = biological target: T1, Protein cereblon-IAP (Homo sapiens); test: PROTAC activity at CRBN/IAP in human MCF7 cells assessed as inhibition of TNFalpha-induced NFkappaB activation by measuring decrease in p38 phosphorylation at 0.1 uM pretreated for 2 hrs followed by stimulation with TNF-alpha for 3 mins by western blot analysis; format: cell-based; details: time 123.0 min
[28] = biological target: T3, Protein cereblon/E3 ubiquitin-protein ligase XIAP (Homo sapiens); test: PROTAC activity at CRBN/XIAP in human MCF7 cells assessed as induction of XIAP degradation at 0.1 uM measured within 1 hr by western blot analysis; format: cell-based
[29] = biological target: Baculoviral IAP repeat-containing protein 2 (Homo sapiens) (UniProt Q13490); test: Induction of cIAP1 degradation in human MCF7 cells at 0.1 uM measured after 18 hrs by western blot analysis; format: cell-based
[30] = biological target: Baculoviral IAP repeat-containing protein 2 (Homo sapiens) (UniProt Q13490); test: Induction of cIAP1 degradation in human MCF7 cells at 0.1 to 10 uM measured after 18 hrs by western blot analysis; format: cell-based; details: dose 0.1-10 µM
[31] = biological target: T2, Protein cereblon/Baculoviral IAP repeat-containing protein 3 (Homo sapiens); test: PROTAC activity at CRBN/cIAP2 in human MCF7 cells assessed as induction of cIAP2 degradation at 0.1 to 10 uM measured after 18 hrs by western blot analysis; format: cell-based; details: dose 0.1-10 µM

Activity [1]: Active
fold change (FC) [2]: > 2
Activity [3]: Active
Activity [6]: Active
Activity [7]: Active
Activity [8]: 90%
Activity [9]: Active
Activity [11]: Active
Activity [12]: 99%
Activity [15]: 90%
Activity [17]: Active
Activity [18]: 97%
Activity [20]: inactive
Activity [25]: inactive
Activity [26]: 99%
Activity [27]: Active
Activity [28]: > 90%
Activity [29]: 87%
Activity [30]: Active
Activity [31]: Active
SMILES: CN[C@@H](C)C(=O)N[C@H](C(=O)N1Cc2cc(OCCCCCCCCNC(=O)C3CN(c4ccc5c(c4)C(=O)N(C4CCC(=O)NC4=O)C5=O)C3)ccc2C[C@H]1C(=O)N[C@@H]1CCCc2ccccc21)C(C)(C)C (stereo partly drawn)
inhibition (MCF7 [4]): Active
inhibition (MCF7 [5]): Active
inhibition (MDA-MB-231): Active
inhibition (MCF7 [10]): Active
GI50 (MCF7 [13]): 396 nM
Activity (MCF7 [14]): Active
inhibition (MCF7 [16]): Active
Activity (SK-OV-3): Active
inhibition (MDA-MB-157 [19]): Active
Activity (MCF7 [21]): Active
Activity (MCF7 [22]): Active
Activity (MCF7 [23]): Active
inhibition (MDA-MB-157 [24]): Active
